Results: patent US20060069132A1, “Azolecarboxamide herbicides” (priority 2004, published 2006)
Like-named read-outs stand apart in the source and are kept apart here.

How the values were obtained:
goosegrass = assay: Test C pre-/postemergence herbicide test; assay type: in vivo, Eleusine indica
Method in brief: (§1)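 Preemergence: seeds planted and treated with compound in non-phytotoxic solvent with surfactant; postemergence: plants at 2 to 18 cm (1- to 4-leaf stage) sprayed likewise. Kept in greenhouse 12 to 14 days, then visually rated against controls, 0 (no effect) to 100 (complete control).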

woolly cupgrass = assay: Test C pre-/postemergence herbicide test; assay type: in vivo, Eriochloa villosa
Method in brief: as §1

rice = assay: Test B pre-/postemergence herbicide test; assay type: in vivo, Oryza sativa; settings: 0 = no effect, 100 = complete control; for Rice plant response rating (0 to 100 scale) / plant injury at 125 g/ha: 125 g ai/ha; for Rice plant response rating (0 to 100 scale) / Plant response rating, Rice: preemergence; for plant injury at 125 g/ha: read-out: Rice plant response rating (0 to 100 scale)
Method in brief: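 Evaluation is visual, comparing treated with control plants on a scale where 0 means no effect and 100 means full control. Treatments were preemergence, or postemergence on seedlings 2–18 cm tall, and held 13–15 days in the greenhouse.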

velvetleaf [1] = assay: Test B pre-/postemergence herbicide test; assay type: in vivo, Abutilon theophrasti
Method in brief: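 Flooded paddy rice and barnyardgrass were treated at the 2-leaf stage; upland plantings received compound either on sown seed or on 1- to 4-leaf seedlings. All were kept 13–15 days in a greenhouse and scored visually, 0–100, relative to untreated plants.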

soybean = assay: Test C pre-/postemergence herbicide test; assay type: in vivo, Glycine max
Method in brief: as §1

bermudagrass = assay: Test C pre-/postemergence herbicide test; assay type: in vivo, Cynodon dactylon
Method in brief: as §1

morningglory [2] = assay: Test C pre-/postemergence herbicide test; assay type: in vivo, Ipomoea coccinea; design: key to Plant response rating, Morningglory: 0 = no effect, 100 = complete control
Method in brief: as §1

morningglory [3] = assay: Test A pre-/postemergence herbicide test; assay type: in vivo, Ipomoea spp.
Method in brief: (§2)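 Sandy loam soil given preemergence directed spray; plants at 2 to 10 cm, one- to two-leaf stage, sprayed to runoff postemergence, compounds in non-phytotoxic solvent with surfactant. Injury rated visually versus untreated controls after about ten greenhouse days, 0 (no effect) to 100 (complete control); dash means not tested.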

velvetleaf [4] = assay: Test A pre-/postemergence herbicide test; assay type: in vivo, Abutilon theophrasti
Method in brief: as §2

[5] = 62 g ai/ha, preemergence, scale 0 to 100
[6] = 125 g ai/ha, scale 0 (no effect) to 100 (complete control), visual, 12 to 14 days, preemergence
[7] = 250 g ai/ha, scale 0-100, preemergence
[8] = 500 g ai/ha, scale 0 to 100 (0 no effect, 100 complete control), visual, 12 to 14 days, preemergence
[9] = 125 g ai/ha, visual rating, scale 0 (no effect) to 100 (complete control), postemergence
[10] = 500 g ai/ha, visual rating, 0 = no effect, 100 = complete control, preemergence
[11] = postemergence, 500 g ai/ha, scale 0 to 100, 0 is no effect, 100 is complete control
[12] = Postemergence, 500 g ai/ha, 0 to 100 scale, 0 no effect, 100 complete control
[13] = Postemergence, 2000 g ai/ha, 0 to 100 scale, 0 no effect, 100 complete control
[14] = Preemergence, 500 g ai/ha, visual rating, 0 to 100 scale (0 no effect, 100 complete control)
[15] = Preemergence, 2000 g ai/ha, visual rating, 0 to 100 scale (0 no effect, 100 complete control)
[16] = 31 g ai/ha, preemergence, scale 0 to 100
[17] = Postemergence, 250 g ai/ha, scale 0 to 100, 0 no effect, 100 complete control
[18] = postemergence, 125 g ai/ha, scale 0 to 100
[19] = postemergence, 62 g ai/ha, scale 0 to 100
[20] = 250 g ai/ha, scale 0 to 100 (0 no effect, 100 complete control), visual, 12 to 14 days, preemergence
[21] = postemergence, 125 g ai/ha, visual rating, scale 0 (no effect) to 100 (complete control)
[22] = Oryza sativa, pre-emergence, 336 h
[23] = Abutilon theophrasti, post-emergence, 336 h, postemergence, 125 g ai/ha, visual rating, scale 0 (no effect) to 100 (complete control), read-out: Velvetleaf plant response rating
[24] = Abutilon theophrasti, pre-emergence, 336 h, 125 g ai/ha, 0 = no effect, 100 = complete control, read-out: Velvetleaf plant response rating (0 to 100 scale)
[25] = preemergence, 500 g ai/ha, visual injury, 0 to 100 scale (0 no effect, 100 complete control)

CCN(C)C(=O)c1ccc(F)c(NC(=O)C2CC(C(C)(C)C)=NN2CC)c1 (racemic) [Compound 307]
Plant response rating, Goosegrass (goosegrass; [5]): 90
Plant response rating, Goosegrass (goosegrass; [6]): 95
Plant response rating, Goosegrass (goosegrass; [7]): 100
Plant response rating, Goosegrass (goosegrass; [8]): 100
Plant response rating, Cupgrass, Woolly (woolly cupgrass; [5]): 5
Plant response rating, Cupgrass, Woolly (woolly cupgrass; [6]): 40
Plant response rating, Cupgrass, Woolly (woolly cupgrass; [7]): 70
Plant response rating, Cupgrass, Woolly (woolly cupgrass; [8]): 85
Rice plant response rating (0 to 100 scale) (rice): 80
Plant response rating, Rice (rice; 500 g ai/ha, visual rating): 90
Velvetleaf plant response rating (velvetleaf [1]; [9]): 10
Plant response rating, Velvetleaf (velvetleaf [1]; [10]): 100
Velvetleaf plant response rating (velvetleaf [1]; [11]): 60
Plant response rating, Soybean (soybean; [5]): 40
Plant response rating, Soybean (soybean; [7]): 80
Plant response rating, Soybean (soybean; [8]): 100
Plant response rating, Bermudagrass (bermudagrass; 62 g ai/ha, preemergence, scale 0 to 100, 0 no effect, 100 complete control): 90
Plant response rating, Bermudagrass (bermudagrass; [6]): 100
Plant response rating, Bermudagrass (bermudagrass; [7]): 100
Bermudagrass plant response rating (bermudagrass; Preemergence, 500 g ai/ha, scale 0 to 100, 0 no effect, 100 complete control): 100
Plant response rating, Morningglory (morningglory [2]; [5]): 0
Plant response rating, Morningglory (morningglory [2]; [6]): 10
Plant response rating, Morningglory (morningglory [2]; [7]): 10
Plant response rating, Morningglory (morningglory [2]; [8]): 15

C=Cn1nc(C(C)(C)C)cc1C(=O)Nc1cccc(C(C)=NO)c1 [Compound 114]
Morningglory plant response rating (morningglory [3]; [12]): 10
Plant response rating, Morningglory (morningglory [3]; [13]): 25
Morningglory plant response rating (morningglory [3]; [14]): 35
Morningglory plant response rating (morningglory [3]; [15]): 70
Velvetleaf plant response rating (velvetleaf [4]; [12]): 20
Plant response rating, Velvetleaf (velvetleaf [4]; [13]): 20
Velvetleaf plant response rating (velvetleaf [4]; [14]): 35
Velvetleaf plant response rating (velvetleaf [4]; [15]): 60
Plant response rating, Goosegrass (goosegrass; [16]): 20
Plant response rating (0 = no effect, 100 = complete control), Goosegrass (goosegrass; 62 g ai/ha, preemergence): 40
Plant response rating, Goosegrass (goosegrass; [6]): 80
Plant response rating, Goosegrass (goosegrass; [17]): 70
Plant response rating, Goosegrass (goosegrass; [18]): 60
Plant response rating, Goosegrass (goosegrass; [19]): 60
Plant response rating, Cupgrass, Woolly (woolly cupgrass; [16]): 0
Plant response rating, Cupgrass, Woolly (woolly cupgrass; [6]): 10
Plant response rating, Cupgrass, Woolly (woolly cupgrass; [20]): 30
Plant response rating, Cupgrass, Woolly (woolly cupgrass; [17]): 70
Plant response rating, Cupgrass, Woolly (woolly cupgrass; [18]): 70
Plant response rating, Cupgrass, Woolly (woolly cupgrass; [19]): 70
Plant response rating, Velvetleaf (velvetleaf [1]; 500 g ai/ha, visual rating 0-100, 0 no effect, 100 complete control, preemergence): 60
Plant response rating, Velvetleaf (velvetleaf [1]; Postemergence, 500 g ai/ha, visual rating after 13 to 15 days, scale 0 (no effect) to 100 (complete control)): 60
Velvetleaf plant response rating (velvetleaf [1]; [21]): 50
Plant response rating, Velvetleaf (velvetleaf [1]; preemergence, 125 g ai/ha, 0 to 100 scale, 0 is no effect, 100 is complete control): 40
Plant response rating, Soybean (soybean; [16]): 60
Plant response rating (0 = no effect, 100 = complete control), Soybean (soybean; 62 g ai/ha, preemergence): 70
Plant response rating, Soybean (soybean; [17]): 70
Plant response rating, Soybean (soybean; [18]): 70
Plant response rating, Soybean (soybean; [19]): 70
Plant response rating, Bermudagrass (bermudagrass; [16]): 10
Plant response rating (0 = no effect, 100 = complete control), Bermudagrass (bermudagrass; 62 g ai/ha, preemergence): 50
Plant response rating, Bermudagrass (bermudagrass; [6]): 90
Plant response rating, Bermudagrass (bermudagrass; [20]): 100
Plant response rating, Bermudagrass (bermudagrass; [17]): 90
Plant response rating, Bermudagrass (bermudagrass; [18]): 90
Plant response rating, Bermudagrass (bermudagrass; postemergence, 31 g ai/ha, scale 0 to 100): 20
Plant response rating, Bermudagrass (bermudagrass; [19]): 60
Plant response rating, Morningglory (morningglory [2]; [16]): 40
Plant response rating, Morningglory (morningglory [2]; [6]): 60
Plant response rating, Morningglory (morningglory [2]; [18]): 30
Plant response rating, Morningglory (morningglory [2]; [19]): 10

CCc1cn(C(C)(C)C)nc1C(=O)Nc1cccc(C(=O)N(CC)CC)c1 [Compound 168, N-[3-[(diethylamino)carbonyl]phenyl]-1-(1,1-dimethylethyl)-4-ethyl-1H-pyrazole-3-carboxamide]
plant injury at 125 g/ha (rice; [22]): 0%
pest or weed control at 31 g/ha (velvetleaf [1]; Abutilon theophrasti, post-emergence, 336 h, postemergence, 31 g ai/ha, scale 0 to 100, read-out: Velvetleaf plant response rating): 10%
pest or weed control at 125 g/ha (velvetleaf [1]; [23]): 20%
pest or weed control at 125 g/ha (velvetleaf [1]; [24]): 60%

CCn1nc(C(C)(C)C)c(F)c1C(=O)Nc1cc(C(=O)N(C)C)ccc1F [Compound 276, N-[5-[(dimethylamino)carbonyl]-2-fluorophenyl]-3-(1,1-dimethylethyl)-1-ethyl-4-fluoro-1H-pyrazole-5-carboxamide]
plant injury at 125 g/ha (rice; [22]): 50%
plant injury at 500 g/ha (rice; Oryza sativa, pre-emergence, 336 h, 500 g ai/ha, visual rating, read-out: Plant response rating, Rice): 80%
pest or weed control at 125 g/ha (velvetleaf [1]; [23]): 10%
pest or weed control at 500 g/ha (velvetleaf [1]; Abutilon theophrasti, post-emergence, 336 h, postemergence, 500 g ai/ha, scale 0 to 100, 0 is no effect, 100 is complete control, read-out: Velvetleaf plant response rating): 40%
pest or weed control at 125 g/ha (velvetleaf [1]; [24]): 0%
pest or weed control at 500 g/ha (velvetleaf [1]; Abutilon theophrasti, pre-emergence, 336 h, 500 g ai/ha, visual rating, 0 = no effect, 100 = complete control, read-out: Plant response rating, Velvetleaf): 50%

C=CCN(C)C(=O)c1cccc(NC(=O)c2cc(C(C)(C)C)nn2CC)c1 [Compound 285]
Morningglory plant response rating (morningglory [3]; [12]): 40
Plant response rating, Morningglory (morningglory [3]; [13]): 50
Morningglory plant response rating (morningglory [3]; [15]): 45
Morningglory plant response rating (morningglory [3]; [25]): 25
Velvetleaf plant response rating (velvetleaf [4]; [12]): 60
Plant response rating, Velvetleaf (velvetleaf [4]; [13]): 75
Velvetleaf plant response rating (velvetleaf [4]; [15]): 40
Velvetleaf plant response rating (velvetleaf [4]; [25]): 35
Rice plant response rating (0 to 100 scale) (rice): 40
Plant response rating, Rice (rice; 500 g ai/ha, visual rating): 80
Velvetleaf plant response rating (0 to 100 scale) (velvetleaf [1]; 125 g ai/ha, 0 = no effect, 100 = complete control, preemergence): 30
Plant response rating, Velvetleaf (velvetleaf [1]; [10]): 100
Velvetleaf plant response rating (velvetleaf [1]; [21]): 10
Velvetleaf plant response rating (velvetleaf [1]; [11]): 40

CCOC(=O)c1cccc(NC(=O)c2cc(C(C)(C)C)nn2C)n1 [Compound 313]
Morningglory plant response rating (morningglory [3]; [12]): 30
Plant response rating, Morningglory (morningglory [3]; [13]): 55
Morningglory plant response rating (morningglory [3]; [15]): 55
Morningglory plant response rating (morningglory [3]; [25]): 20
Velvetleaf plant response rating (velvetleaf [4]; [12]): 40
Plant response rating, Velvetleaf (velvetleaf [4]; [13]): 50
Velvetleaf plant response rating (velvetleaf [4]; [15]): 80
Velvetleaf plant response rating (velvetleaf [4]; [25]): 65
Rice plant response rating (0 to 100 scale) (rice): 20
Plant response rating, Rice (rice; 500 g ai/ha, visual rating): 40
Velvetleaf plant response rating (velvetleaf [1]; [9]): 60
Plant response rating, Velvetleaf (velvetleaf [1]; [10]): 100
Velvetleaf plant response rating (velvetleaf [1]; [11]): 70
